Data: US9926354B2, “Amyloid precursor protein (APP) based Ã#-secretase inhibitor peptides, and methods of use” (UNIVERSITY OF SOUTH FLORIDA, priority 2014, dated 2018)

How the values were obtained:
[1] = test system: CHO cells over-expressing human Swedish mutant APP (CHO/APPswe); experiment: Aβ and sAPPα production in cultured media of CHO/APPswe cells by ELISA; format: cell-based, Chinese hamster; settings: 20 μg/mL, 24 hours
Method: Cell Culture—Chinese hamster ovary (CHO) cells engineered to express wild-type human APP (CHO/APPwt cells) or Swedish mutant human APP (CHO/APPswe cells) were kindly provided by Dr. Stefanie Hahn and Dr. Sascha Weggen (University of Heinrich Heine, Dusseldorf, Germany). As described previously (Obregon et al., 2012), these cells were cultured in Dulbecco's modified Eagle's medium (DMEM) with 10% fetal bovine serum (FBS), 1 mM sodium pyruvate, and 100 units/mL of penicillin and streptomycin.
To confirm the binding of APPsweBBP with BACE1, CHO/APPwt cells were plated in 8-well chambers (5×10^5/well), incubated with TAT-APPsweBBP-biotin or APPsweBBP-biotin at 20 μM for 30 minutes, fixed with 4% paraformaldehyde for 20 minutes, washed and permeabilized with 0.5% Triton X-100. Following application of blocking buffer, these cells were stained with mouse anti-BACE1 and rabbit anti-biotin antibodies overnight at 4° C. for immunocytochemistry analysis. In order to determine the inhibitory effects of TAT-APPsweBBP on BACE1-mediated APP β-cleavage and subsequent Aβ production, both CHO/APPwt and CHO/APPswe cells were plated in 24 well-plates (3×10^5/well) and treated with TAT-APPsweBBP at 0-20 μM for 24 hours. The cultured media were collected for Aβ analysis by enzyme-linked immunosorbent assay (ELISA) and sAPPα analysis by ELISA and Western blot (WB). Cell lysates were also prepared for analysis of APP amyloidogenic processing by WB.
ELISA—Mouse brains were homogenized in ice-cold lysis buffer for 30 seconds using a Minilys tissue homogenizer (Bertin Technologies, Montigny-le-Bretonneux, France) set at high speed, allowed to stand for 15 minutes at 4° C., and centrifuged at 15,000 rpm for 30 minutes. Soluble Aβ1-40/42 species and sAPPα were directly detected in cultured cell media or brain homogenates using the Aβ1-40/42 (Invitrogen) and sAPPα ELISA kits (IBL-America, Minneapolis, Minn., USA).
To further examine the ability of the Swedish mutant APP BACE1 binding peptide/Tat fusion peptides to decrease Aβ production, CHO cells overexpressing either human wild-type APP (CHO/APPwt cells) or Swedish mutant APP (hereinafter referred to as “CHO/APPswe cells”) are treated with a variety of APP-based BACE1 inhibitor peptides, as shown in Table 1 and Table 2. Aβ production is determined using ELISA.

[2] = test system: 5XFAD mice; experiment: β-amyloid deposits in 5XFAD mouse brains (4G8 immunohistochemistry, image analysis); format: in vivo; settings: 8 weeks i.p. treatment
Description: Percentage of 4G8 immunoreactive areas in regions of interest (RSC, EC and H regions) was quantified by image analysis for each treatment group (B). Data are represented as mean±SD (n=10, 5 female/5 male).
5XFAD Mice—Transgenic AD mice [5XFAD; B6SJL-Tg(APPSwF1Lon,PSEN1*M146L*L286V) 6799Vas/Mmjax] at 2.5 months of age were obtained from the Jackson Laboratory (Bar Harbor, Me., USA) and housed and maintained in the Animal Facility of College of Medicine at University of South Florida. The mice at 3.5 months of age were treated with TAT-APPsweBBP, TAT peptide (100 nM/kg in 100 μl PBS) or PBS (100 μl) intraperitioneally (i.p.) daily for eight consecutive weeks. The mice were subjected to behavioral testing after 8 week-treatment and euthanized for immunohistochemical, ELISA and WB analysis after completing behavioral tests. All experiments involving mice were in compliance with the U.S. Department of Health and Human Services Guide for the Care and Use of Laboratory Animals and in accordance with the guidelines of the USF Institutional Animal Care and Use Committee.
Immunohistochemistry—Fixed cell cultures and brain sections were stained with indicated antibodies and then treated with donkey anti-mouse IgG conjugated with Alexa Fluor 488 (1:200) and goat anti-rabbit IgG conjugated with Alexa Fluor 594 (1:200; Invitrogen, Carlsbad, Calif., USA). […]

[3] = target: BACE1 (Homo sapiens, UniProt P56817); experiment: BACE1 activity assay (FRET, cell-free); format: biochemical; parameters: purchased Pan Vera Co., Madison, Wis., USA; settings: peptide final concentration 20 μM, 90 minutes, room temperature
Sequence of BACE1 (P56817 46-501): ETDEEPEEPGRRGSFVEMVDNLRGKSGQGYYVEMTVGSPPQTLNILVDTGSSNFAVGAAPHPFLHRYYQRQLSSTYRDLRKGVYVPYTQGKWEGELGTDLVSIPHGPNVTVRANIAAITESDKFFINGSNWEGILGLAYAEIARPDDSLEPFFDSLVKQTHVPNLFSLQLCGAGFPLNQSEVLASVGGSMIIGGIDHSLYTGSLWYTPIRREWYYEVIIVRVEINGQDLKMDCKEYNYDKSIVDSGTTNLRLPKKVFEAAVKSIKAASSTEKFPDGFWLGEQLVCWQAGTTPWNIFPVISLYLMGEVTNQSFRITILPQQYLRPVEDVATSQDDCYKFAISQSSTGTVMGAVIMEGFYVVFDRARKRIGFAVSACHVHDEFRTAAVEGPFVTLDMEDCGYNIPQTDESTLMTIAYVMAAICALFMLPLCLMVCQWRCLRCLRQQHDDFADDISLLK
Method: BACE1 Activity Assay—The BACE1 inhibiting activity of APP-based BACE1 site binding peptides were determined using a fluorescence resonance energy transfer (FRET) assay (Pan Vera Co., Madison, Wis., USA), which employs a recombinant baculovirus-expressed BACE1 and a specific substrate (Rh-[…]-quencher) that is based on the APPswe mutation. This specific peptide substrate becomes highly fluorescent upon enzymatic cleavage. A mixture of 10 μL of BACE1 (1.0 U/mL in 50 mM Tris, pH7.5, 10% glycerol), 10 μL of FRET-substrate, and 10 μL of the various APP-based BACE1 site binding peptides (final concentration 20 μM) were incubated for 90 minutes in the dark at room temperature. Then, 10 μL of BACE1 stop buffer (2.5 M sodium acetate) was added to the mixture. Fluorescence was read using a fluorometer, with excitation at 545 nm and emission at 585 nm.
As a required enzyme for the generation of neurotoxic Aβ from APP, BACE1 is well established as an important mediator of AD β-amyloid pathology. As such, it has become an important target for new disease modifying therapeutics. However, since BACE1 also has important physiological roles, abolishment of the enzyme or its activity may lead to deleterious side effects as evidenced by numerous failed clinical trials discussed previously. […] Since previous studies have established a close relationship between α-helix structure and peptide-protein (or protein-protein) interactions (Azzarito, 2013; Rao et al., 2013), several APP based peptides were synthesized that might serve as a preferable substrate for BACE1. Importantly, these peptides were free of the Aβ-containing segment and, thus, cannot be amyloidogenic. In theory, these could be used to “hijack” the BACE1 processing of endogenous APP and lead to a decrease in cerebral Aβ. These BACE1 substrates and controls were incubated with recombinant BACE1 and percent of inhibition of the enzyme was calculated. […] These findings indicate that the α-helical TAT fusion domain may help to promote selective APPsweBBP proteolysis by BACE1, yielding substrate competition against human wild-type APP.

Sequence: YGRKKRRQRRR [TAT, reference compound]
- Secreted Aβ40 (ng/mg; mean ± SD) [1]: 66.71 ± 12.02 ng/mg
- Secreted Aβ42 (ng/mg; mean ± SD) [1]: 10.76 ± 2.12 ng/mg
- Secreted sAPPα (ng/mg; mean ± SD) [1]: 196.98 ± 17.77 ng/mg
- percentage of 4G8 immunoreactive areas (β-amyloid plaques) in RSC, EC and H regions [2]: no significant difference
- % of inhibition (mean ± SD) of BACE1 [3]: 3.32 ± 0.02%
